Measured values from patent US20240293558A1, “KRAS INHIBITOR CONJUGATES” (Erasca, Inc., priority 2021, published 2024).
Like-named read-outs stand apart in the source and are kept apart here.

How the values were obtained:
KRAS 4B G12C protein = biological target: T1, KRAS 4B G12C protein (Homo sapiens, UniProt P01116, G12C); assay: In vitro covalent adduct formation (CAF) assay, LC-MS; assay type: binding; conditions: 5 μM KRAS 4B G12C, 10 μM compound, 22° C.
T1 construct: made in house; host or cells: E. coli BL21
Description: This Example provides a protocol for assessing covalent adduct formation (CAF) between the compounds provided herein and KRAS.
In vitro covalent adduct formation assay: Covalent adduct formation (CAF) reactions between Cys12 of the KRAS 4B G12C protein and embodiments of the application were measured in vitro using liquid chromatography-mass spectrometry (LC-MS).
Recombinant Human KRAS 4B protein containing the G12C mutation was used in compound screening experiments. This protein contained 188 amino acids in total, including an N-terminal 6-Histidine tag, followed by a Tobacco Etch Virus (TEV) tag, followed by residues 1-169 of the native KRAS 4B sequence. The exact mass of the protein was 21,310 Da as determined by mass spectrometry. […]
The recombinant protein was expressed in E. coli BL21 cells and purified using affinity chromatography via a Ni-NTA column. […] The intact mass of the protein samples was measured by LC-MS using a QExactive+mass spectrometer (Thermo Scientific). An amount of 500 ng total protein was injected onto a C8 reverse phase column, eluted with a seven-minute gradient of 30%-90% acetonitrile/0.10% formic acid, and analyzed for intact mass by the mass spectrometer. Adducts identified were confirmed to be within 1 Dalton of the expected mass, and the relative ratios of free:adduct protein were used to quantify the percentage of protein bound by the compound. […]

KRAS (WT) = biological target: T2, KRAS (WT) (Homo sapiens, UniProt P01116); assay: In-vitro RAS-RAF binding assay (RRB), HTRF/FRET; assay type: biochemical; conditions: read-out: Inhibition of RAS-RAF Binding (in-vitro) KRAS (WT) IC50
T2 construct: Biotinylated KRAS protein amino acids 1-169 (produced at Erasca); made in house
How it was run: (§1)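 Compounds preincubated with terbium-labelled biotinylated KRAS (aa 1-169, 30 nM) before 60 min SOS1-catalysed exchange to GTPgS. Binding of the d2-labelled cRAF RBD (30 nM) is read as FRET at equilibrium in duplicate. Buffer: 50 mM HEPES pH 7.5, 100 mM NaCl, 1 mM MgCl2, 1 mM DTT.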

KRAS G12D [1] = biological target: T3, KRAS G12D (Homo sapiens, UniProt P01116, G12D); assay: In-vitro RAS-RAF binding assay (RRB), HTRF/FRET; assay type: biochemical; parameters: Biotinylated KRAS protein amino acids 1-169 (produced at Erasca); made in house; conditions: read-out: Inhibition of RAS-RAF Binding (in-vitro) KRAS (G12D) IC50
How it was run: as §1

KRAS G12D [2] = biological target: T3, KRAS G12D; assay: Degradation of KRas G12D in AsPC-1 cells, Western blot; assay type: cell-based; parameters: endogenous in cells; host or cells: AsPC-1 (ATCC CRL-1682); conditions: AsPC-1 cells, FIGS. 1-5
Description: This Example illustrates that the compounds presented herein degrade KRAS G12D.
AsPC-1 cells (ATCC CRL-1682) expressing G12D were grown in RPMI-1640 medium supplemented with 10% fetal bovine serum, and Penicillin/Streptomycin. Cell were plated in 6-well tissue culture plates at a density of 1 million cells/well and allowed to attach for overnight. Diluted compounds were then added in a final concentration of 0.2% DMSO. After 24 hour treatment, the medium was removed, and the plate was washed three times with ice-cold PBS. 50ul of the RIPA cell lysis buffer (ThermoFisher 89901) supplemented with protease inhibitor (Roche 4693116001) and Phosphatase Cocktail A and B inhibitor (Bimake B15002; Bimake Houston TX) was added to each well, the adherent cells were scratched off, and transferred into pre-cold centrifuge tubes. After vigorous vortex, the tubes were incubated on ice for 30 minutes, centrifuged 14,000 rpm for 10 min at 4° C., and the supernatant were transferred into fresh tubes kept on ice. The protein concentration of the supernatant was determined with bicinchoninic acid method (BCA) (ThermoFisher 23227). Samples were prepared to the final concentration of 30ug in 20ul using NuPAGE LDS Sample Buffer (Invitrogen NP0007), NuPAGE Sample Reducing Agent (Invitrogen NP0009), and RIPA cell lysis buffer, and boiled at 95° C. for 15 minutes in water bath.
The levels of KRAS protein and phosphorylated ERK1/2 were determined by Western blotting. 20 μL of protein sample mixture was loaded into each well of 1.5 mm 4-12% Bis-Tris gel (Invitrogen NP0335), and run at 80V in stacking gel and 120 V in separating gel for about 2 h in MOPS running buffer (Invitrogen NP0001). The gel was transferred to the membrane (20V, 7 min) with Invitrogen iBlot2, and blocked with Li-Cor blocking buffer (LI-COR 927-60001; Li-Cor Biotechnology, Lincoln NE) for at least 1 h at room temperature. Primary antibodies diluted in the blocking buffer were added and incubated at 4° C. overnight. As the primary antibodies, KRAS (Proteintech 12063-1-AP), G12D Mutant Specific KRAS (Cell Signaling Technology 14429S), ERKI1/2 (Cell Signaling Technology 4695S), Phospho-ERKI1/2 (Cell Signaling Technology 4370S), and GAPDH (Millipore MAB374) were used. The membrane was washed 4 times with TBST (0.10% Tween20®; ThermoFisher 28360) for 5 minutes at room temperature, then incubated with Li-Cor anti-rabbit-800 (LI-COR 926-68070) and anti-mouse-680 (LI-COR-926-32211) diluted in Li-Cor blocking buffer with the ratio of 1:15,000 to visualize the primary antibodies for 1 hour at room temperature. Then membrane was washed 4 times with TBST (0.1% Tween20) 5 minutes. The signal intensities of bands were quantified by Li-Cor Odyssey CLX.
The KRas and phosphor-ERK1/2 signals were normalized to the GAPDH signal for each lane and percent of DMSO values were calculated to determine the degradation of KRas and the inhibition of ERK1/2 phosphorylation upon the compound treatment.

[3] = Table 2, average of multiple runs of each compound

`C=CC(=O)N1CCN(c2nc(OCCN3CCC4(CC3)CN(c3cc([C@H](C(=O)N5C[C@H](O)C[C@H]5C(=O)N[C@@H](C)c5ccc(-c6c(F)cccc6F)cc5)C(C)C)on3)C4)nc3c(F)c(-c4nc(N)cc(C)c4C(F)(F)F)c(Cl)cc23)[C@@H](C)C1` (atropisomer, axis not shown) [Example 201, (2S,4R)-1-((R)-2-(3-(7-(2-(((R)-4-((S)-4-acryloyl-2-methylpiperazin-1-yl)-7-(6-amino-4-methyl-3-(trifluoromethyl)pyridin-2-yl)-6-chloro-8-fluoroquinazolin-2-yl)oxy)ethyl)-2,7-diazaspiro[3.5]nonan-2-yl)isoxazol-5-yl)-3-methylbutanoyl)-N—((S)-1-(2′,6′-difluoro-[1,1′-biphenyl]-4-yl)ethyl)-4-hydroxypyrrolidine-2-carboxamide] was tested, and the “% CAF at 5 min” value (KRAS 4B G12C protein) was 98%.

With `C=CC(=O)N1CCN(c2nc(OCCN3CCC(COc4cc([C@H](C(=O)N5C[C@H](O)C[C@H]5C(=O)N[C@@H](C)c5ccc(-c6c(F)cccc6F)cc5)C(C)C)on4)CC3)nc3c(F)c(-c4nc(N)cc(C)c4C(F)(F)F)c(Cl)cc23)[C@@H](C)C1` (atropisomer, axis not shown) [Example 200, (2S,4R)-1-((R)-2-(3-((1-(2-((4-((S)-4-acryloyl-2-methylpiperazin-1-yl)-7-((R)-6-amino-4-methyl-3-(trifluoromethyl)pyridin-2-yl)-6-chloro-8-fluoroquinazolin-2-yl)oxy)ethyl)piperidin-4-yl)methoxy)isoxazol-5-yl)-3-methylbutanoyl)-N—((S)-1-(2′,6′-difluoro-[1,1′-biphenyl]-4-yl)ethyl)-4-hydroxypyrrolidine-2-carboxamide] the “% CAF at 5 min” value (KRAS 4B G12C protein) was 97%.

In the case of `Cc1ncsc1-c1ccc([C@H](C)NC(=O)[C@@H]2C[C@@H](O)CN2C(=O)[C@@H](NC(=O)CCCCN2CCC[C@H]2COc2nc(N3CC4CCC(C3)N4)c3cc(Cl)c(-c4ccc(F)c5sc(N)nc45)c(F)c3n2)C(C)(C)C)cc1` [Example 7, (2S,4R)-1-[(2S)-2-[5-[(2S)-2-[[7-(2-amino-7-fluoro-1,3-benzothiazol-4-yl)-6-chloro-4-(3,8-diazabicyclo[3.2.1]octan-3-yl)-8-fluoro-quinazolin-2-yl]oxymethyl]pyrrolidin-1-yl]pentanoylamino]-3,3-dimethyl-butanoyl]-4-hydroxy-N-[(1S)-1-[4-(4-methylthiazol-5-yl)phenyl]ethyl]pyrrolidine-2-carboxamide], the IC50 (KRAS (WT); Table 1) is reported as 448 nM, the IC50 (KRAS (WT); [3]) is reported as 448 nM and the IC50 (KRAS G12D [1]; Table 1) is reported as 12 nM. For the same compound, the IC50 (KRAS G12D [1]; [3]) was 12.4 nM and the “KRAS G12D degradation (Western blot), result in words” value (KRAS G12D [2]) was “Favorable results”.
